Values of other authors, collected in patent publication US20060275372A1 (Elan Pharma International Limited, priority 2005, published 2006).
Where a name gives a salt, the structure may show the parent alone.

Settings: fasting state as compared to the fed state

bioavailability: limited bioavailability
SMILES: Cc1ccc(NC(=O)c2ccc(CN3CCN(C)CC3)cc2)cc1Nc1nccc(-c2cccnc2)n1 [Imatinib mesylate, 4-[(4-Methyl-1-piperazinyl)methyl]-N-[4-methyl-3-[[4-(3-pyridinyl)-2-pyrimidinyl]amino]-phenyl]benzamide methanesulfonate]
